Data reported in paper PMC11246197 (Journal of medicinal chemistry, 2024).
pEC50: −log10 of the molar value.

Test system: SARS-CoV-2 Omicron variant BA.1
Format: cell-based
Settings: read-out: EC50 against SARS-CoV-2 Omicron variant BA.1

For `CC(C)OC(=O)[C@H](C)N[P@](=O)(OC[C@H]1O[C@@](C#N)(c2ccc3c(N)ncnn23)[C@H](O)[C@@H]1O)Oc1ccccc1` [IsoRDV], the pEC50 was 6.27.
